Laboratory results taken from patent US12077503B2, “Substituted cyclic amides and their use as herbicides” (FMC CORPORATION, priority 2015, dated 2024).

Columns and labels:
Format in all cases: in vivo
[1] = tested on: barnyardgrass (Echinochloa crus-galli); assay: Test G Post-Emergence Protocol; conditions: Echinochloa crus-galli, post-emergence, 312 h; for pest or weed control at 15.625 g/ha: 15.625 g ai/ha, evaluated after 13 days (100=total damage to plant; 0=no damage to plant), read-out: Barnyardgrass damage rating; for pest or weed control at 62.5 g/ha: 62.5 g ai/ha, read-out: Barnyardgrass damage rating (100=total damage to plant; 0=no damage to plant); for pest or weed control at 62.5 g/ha / pest or weed control at 250 g/ha: evaluated after 13 days; for pest or weed control at 250 g/ha: 250 g ai/ha, read-out: damage to plant, Barnyardgrass (100=total damage to plant; 0=no damage to plant)
Outline: (§1)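 Sow in soil; grow 8 d (24/16 °C, 14 h light, 65% humidity); spray 15.625/62.5/250 g/ha in acetone:water 50:50 + 0.5% Tween 20; grow on, water twice daily; score damage 0–100 at 13 d.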

[2] = tested on: velvetleaf (Abutilon theophrasti); assay: Test G Post-Emergence Protocol; conditions: Abutilon theophrasti, post-emergence, 312 h; for pest or weed control at 15.625 g/ha: 15.625 g ai/ha, evaluated after 13 days (100=total damage to plant; 0=no damage to plant), read-out: Velvetleaf damage rating; for pest or weed control at 62.5 g/ha: 62.5 g ai/ha, read-out: Velvetleaf damage rating (100=total damage to plant; 0=no damage to plant); for pest or weed control at 62.5 g/ha / pest or weed control at 250 g/ha: evaluated after 13 days; for pest or weed control at 250 g/ha: 250 g ai/ha, read-out: damage to plant, Velvetleaf (100=total damage to plant; 0=no damage to plant)
Outline: as §1

corn (Zea mays) [3] = assay: Test G Post-Emergence Protocol; conditions: Zea mays, post-emergence, 312 h; for plant injury at 15.625 g/ha: 15.625 g ai/ha, evaluated after 13 days (100=total damage to plant; 0=no damage to plant), read-out: Corn damage rating; for plant injury at 62.5 g/ha: 62.5 g ai/ha, read-out: Corn damage rating (100=total damage to plant; 0=no damage to plant); for plant injury at 62.5 g/ha / plant injury at 250 g/ha: evaluated after 13 days; for plant injury at 250 g/ha: 250 g ai/ha, read-out: damage to plant, Corn (100=total damage to plant; 0=no damage to plant)
Outline: as §1

[4] = tested on: redroot pigweed (Amaranthus retroflexus); assay: Test G Post-Emergence Protocol; conditions: Amaranthus retroflexus, post-emergence, 312 h; for pest or weed control at 15.625 g/ha: 15.625 g ai/ha, evaluated after 13 days (100=total damage to plant; 0=no damage to plant), read-out: Pigweed, Redroot damage rating; for pest or weed control at 62.5 g/ha: 62.5 g ai/ha, read-out: Pigweed, Redroot damage rating (100=total damage to plant; 0=no damage to plant); for pest or weed control at 62.5 g/ha / pest or weed control at 250 g/ha: evaluated after 13 days; for pest or weed control at 250 g/ha: 250 g ai/ha, read-out: damage to plant, Pigweed, Redroot (100=total damage to plant; 0=no damage to plant)
Outline: as §1

[5] = tested on: giant foxtail (Setaria faberi); assay: Test G Post-Emergence Protocol; conditions: Setaria faberi, post-emergence, 312 h; for pest or weed control at 15.625 g/ha: 15.625 g ai/ha, evaluated after 13 days (100=total damage to plant; 0=no damage to plant), read-out: Foxtail, Giant damage rating; for pest or weed control at 62.5 g/ha: 62.5 g ai/ha, read-out: Foxtail, Giant damage rating (100=total damage to plant; 0=no damage to plant); for pest or weed control at 62.5 g/ha / pest or weed control at 250 g/ha: evaluated after 13 days; for pest or weed control at 250 g/ha: 250 g ai/ha, read-out: damage to plant, Foxtail, Giant (100=total damage to plant; 0=no damage to plant)
Outline: as §1

[6] = tested on: ivy-leaved morning glory (Ipomoea hederacea); assay: Test G Post-Emergence Protocol; conditions: Ipomoea, post-emergence, 312 h; for pest or weed control at 15.625 g/ha: 15.625 g ai/ha, evaluated after 13 days (100=total damage to plant; 0=no damage to plant), read-out: Morningglory, Ivy-leaved damage rating; for pest or weed control at 62.5 g/ha: 62.5 g ai/ha, read-out: Morningglory, Ivy-leaved damage rating (100=total damage to plant; 0=no damage to plant); for pest or weed control at 62.5 g/ha / pest or weed control at 250 g/ha: evaluated after 13 days; for pest or weed control at 250 g/ha: 250 g ai/ha, read-out: damage to plant, Morningglory, Ivy-leaved (100=total damage to plant; 0=no damage to plant)
Outline: as §1

[7] = tested on: barnyardgrass (Echinochloa crus-galli); assay: Test G Pre-Emergence Protocol; conditions: Echinochloa crus-galli, pre-emergence, 312 h, evaluated after 13 days; for pest or weed control at 15.625 g/ha: 15.625 g ai/ha, read-out: Barnyard grass damage rating (100=total damage to plant; 0=no damage to plant); for pest or weed control at 62.5 g/ha: 62.5 g ai/ha, 100=total damage to plant, 0=no damage to plant, read-out: plant damage rating, Barnyardgrass; for pest or weed control at 250 g/ha: 250 g ai/ha, read-out: Barnyardgrass damage rating (100=total damage to plant; 0=no damage to plant)
Outline: (§2)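 Scores are visual damage ratings from 0 (no damage) to 100 (total plant kill), taken 13 days after treatment. Compound was sprayed one day post-sowing at 15.625, 62.5 or 250 g/ha in 50:50 acetone/water with 0.5% Tween 20.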

[8] = tested on: velvetleaf (Abutilon theophrasti); assay: Test G Pre-Emergence Protocol; conditions: Abutilon theophrasti, pre-emergence, 312 h, evaluated after 13 days; for pest or weed control at 15.625 g/ha: 15.625 g ai/ha; for pest or weed control at 15.625 g/ha / pest or weed control at 250 g/ha: read-out: Velvetleaf damage rating (100=total damage to plant; 0=no damage to plant); for pest or weed control at 62.5 g/ha: 62.5 g ai/ha, 100=total damage to plant, 0=no damage to plant, read-out: plant damage rating, Velvetleaf; for pest or weed control at 250 g/ha: 250 g ai/ha
Outline: as §2

corn (Zea mays) [9] = assay: Test G Pre-Emergence Protocol; conditions: Zea mays, pre-emergence, 312 h, evaluated after 13 days; for plant injury at 15.625 g/ha: 15.625 g ai/ha; for plant injury at 15.625 g/ha / plant injury at 250 g/ha: read-out: Corn damage rating (100=total damage to plant; 0=no damage to plant); for plant injury at 62.5 g/ha: 62.5 g ai/ha, 100=total damage to plant, 0=no damage to plant, read-out: plant damage rating, Corn; for plant injury at 250 g/ha: 250 g ai/ha
Outline: as §2

[10] = tested on: redroot pigweed (Amaranthus retroflexus); assay: Test G Pre-Emergence Protocol; conditions: Amaranthus retroflexus, pre-emergence, 312 h, evaluated after 13 days; for pest or weed control at 15.625 g/ha: 15.625 g ai/ha; for pest or weed control at 15.625 g/ha / pest or weed control at 250 g/ha: read-out: Pigweed, Redroot damage rating (100=total damage to plant; 0=no damage to plant); for pest or weed control at 250 g/ha: 250 g ai/ha
Outline: as §2

[11] = tested on: giant foxtail (Setaria faberi); assay: Test G Pre-Emergence Protocol; conditions: Setaria faberi, pre-emergence, 312 h, evaluated after 13 days; for pest or weed control at 15.625 g/ha: 15.625 g ai/ha; for pest or weed control at 15.625 g/ha / pest or weed control at 250 g/ha: read-out: Foxtail, Giant damage rating (100=total damage to plant; 0=no damage to plant); for pest or weed control at 62.5 g/ha: 62.5 g ai/ha, 100=total damage to plant, 0=no damage to plant, read-out: plant damage rating, Foxtail, Giant; for pest or weed control at 250 g/ha: 250 g ai/ha
Outline: as §2

[12] = tested on: ivy-leaved morning glory (Ipomoea hederacea); assay: Test G Pre-Emergence Protocol; conditions: Ipomoea, pre-emergence, 312 h, evaluated after 13 days; for pest or weed control at 15.625 g/ha: 15.625 g ai/ha, read-out: Morning-glory, Ivy-leaved damage rating (100=total damage to plant; 0=no damage to plant); for pest or weed control at 62.5 g/ha: 62.5 g ai/ha, 100=total damage to plant, 0=no damage to plant, read-out: plant damage rating, Morningglory, Ivy-leaved; for pest or weed control at 250 g/ha: 250 g ai/ha, read-out: Morningglory, Ivy-leaved damage rating (100=total damage to plant; 0=no damage to plant)
Outline: as §2

Structure (SMILES)	pest or weed control at 15.625 g/ha [1] [%]	pest or weed control at 62.5 g/ha [1] [%]	pest or weed control at 250 g/ha [1] [%]	pest or weed control at 15.625 g/ha [2] [%]	pest or weed control at 62.5 g/ha [2] [%]	pest or weed control at 250 g/ha [2] [%]	plant injury at 15.625 g/ha (corn (Zea mays) [3]) [%]	plant injury at 62.5 g/ha (corn (Zea mays) [3]) [%]	plant injury at 250 g/ha (corn (Zea mays) [3]) [%]	pest or weed control at 15.625 g/ha [4] [%]	pest or weed control at 62.5 g/ha [4] [%]	pest or weed control at 250 g/ha [4] [%]	pest or weed control at 15.625 g/ha [5] [%]	pest or weed control at 62.5 g/ha [5] [%]	pest or weed control at 250 g/ha [5] [%]	pest or weed control at 15.625 g/ha [6] [%]	pest or weed control at 62.5 g/ha [6] [%]	pest or weed control at 250 g/ha [6] [%]	pest or weed control at 15.625 g/ha [7] [%]	pest or weed control at 62.5 g/ha [7] [%]	also measured
CN1C[C@H](c2ccc(C(F)(F)F)cc2)[C@@H](C(=O)Nc2ccccc2S(C)(=O)=O)C1=O (racemic) [Compound 1459]	0	10	20	0	0	0	10	10	10	30	40	40	10	60	60	0	0	20	20	60	pest or weed control at 250 g/ha [7]: 60%; pest or weed control at 15.625 g/ha [8]: 0%; pest or weed control at 62.5 g/ha [8]: 0%; pest or weed control at 250 g/ha [8]: 0%; plant injury at 15.625 g/ha (corn (Zea mays) [9]): 0%; plant injury at 62.5 g/ha (corn (Zea mays) [9]): 0%; plant injury at 250 g/ha (corn (Zea mays) [9]): 0%; pest or weed control at 15.625 g/ha [10]: 0%; pest or weed control at 250 g/ha [10]: 60%; pest or weed control at 15.625 g/ha [11]: 40%; pest or weed control at 62.5 g/ha [11]: 60%; pest or weed control at 250 g/ha [11]: 80%; pest or weed control at 15.625 g/ha [12]: 0%; pest or weed control at 62.5 g/ha [12]: 0%; pest or weed control at 250 g/ha [12]: 0%
COC(=O)c1cc([C@H]2CN(C)C(=O)[C@@H]2C(=O)Nc2ccccc2F)ccc1Cl (racemic) [Compound 1460]	20	30	60	0	0	10	10	0	40	0	10	20	40	70	70	0	0	10	0	70	pest or weed control at 250 g/ha [7]: 90%; pest or weed control at 15.625 g/ha [8]: 0%; pest or weed control at 62.5 g/ha [8]: 0%; pest or weed control at 250 g/ha [8]: 0%; plant injury at 15.625 g/ha (corn (Zea mays) [9]): 0%; plant injury at 62.5 g/ha (corn (Zea mays) [9]): 0%; plant injury at 250 g/ha (corn (Zea mays) [9]): 10%; pest or weed control at 15.625 g/ha [10]: 0%; pest or weed control at 62.5 g/ha ([10]; 62.5 g ai/ha, 100=total damage to plant, 0=no damage to plant, read-out: plant damage rating, Pigweed, Redroot): 40%; pest or weed control at 250 g/ha [10]: 70%; pest or weed control at 15.625 g/ha [11]: 10%; pest or weed control at 62.5 g/ha [11]: 80%; pest or weed control at 250 g/ha [11]: 90%; pest or weed control at 15.625 g/ha [12]: 0%; pest or weed control at 62.5 g/ha [12]: 40%; pest or weed control at 250 g/ha [12]: 50%
